The values below are quoted from earlier work in patent publication US20190328772A1, “OPHTHALMIC COMPOSITIONS COMPRISING A CYCLODEXTRIN AS SOLE ACTIVE AGENT” (priority 2016, published 2019).

Read-outs that look alike come from different tables or passages of the source.

Data set [1] relates to corneal epithelium of rabbits.
In the next data set the test system is drusen. As to conditions: 37° C., 24 hours.
Another data set concerns mouse brown fat tissue. As to conditions: concentrations of 25-40%, 24 hours.

On to “β-Cyclodextrin sulfobutyl ether [SBE-β-CD]”, for which, in data set [1] (solution of 10%), the “toxicity or irritation in rabbit eyes” value is “not to be toxic or irritating”.
Take randomly methylated β-CD [RM-β-CD]: the “toxicity to the corneal epithelium of rabbits” value in data set [1] (concentration 5%) is reported as “can be toxic”.
On to `CC(O)COC[C@H]1O[C@@H]2O[C@H]3[C@H](O)[C@@H](O)[C@@H](O[C@H]4[C@H](O)[C@@H](O)[C@@H](O[C@H]5[C@H](O)[C@@H](O)[C@@H](O[C@H]6[C@H](O)[C@@H](O)[C@@H](O[C@H]7[C@H](O)[C@@H](O)[C@@H](O[C@H]8[C@H](O)[C@@H](O)[C@@H](O[C@H]1[C@H](O)[C@H]2O)O[C@@H]8COCC(C)O)O[C@@H]7COCC(C)O)O[C@@H]6COCC(C)O)O[C@@H]5COCC(C)O)O[C@@H]4COCC(C)O)O[C@@H]3COCC(C)O` (stereo partly drawn) [HP-β-CD, Hydroxypropyl-β-cyclodextrin], for which, in data set [1] (rabbit, in vivo), the “toxicity or irritation in rabbit eyes” value is reported as “not to be toxic or irritating”. In the data set with drusen (40 ml of 25%, sections of a cut up human eye), the “dissolving the lipid component in drusen” value is on record as “efficacy in dissolving the lipid component in drusen”. Besides, the “change of drusen by H&E staining” value in the data set on drusen (40 ml of different concentrations, eye sections) is reported as “no change”. Moreover, the “removal of mouse brown fat tissue” value with mouse brown fat tissue is listed as “able to partially remove mouse brown fat tissue”.
